Measured values as given in US8772504B2, “Substituted benzoxazole, benzimidazole, oxazolopyridine and imidazopyridine derivatives as gamma secretase modulators” (Janssen Pharmaceuticals, Inc., priority 2009, dated 2014).
pIC50: −log10 of the molar value.

Legend:
Aβ42 [1] = test: In vivo efficacy Method 1: brain soluble Aβ42 by ELISA; parameters: species or system mouse; conditions: Table 4a, single oral dose, overnight fasted animals, sacrificed after 4 h, soluble fraction of brain homogenates
Summary of the method: (§1)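 Overnight-fasted rodents or APP transgenic mice given a single oral dose in 20% Captisol or 20% hydroxypropyl β-cyclodextrin and sacrificed after 4 h. Right-hemisphere homogenate high-speed supernatant used: neutralized portion for Aβtotal, Oasis HLB-purified and concentrated eluate for Aβ42, both quantified by ELISA.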

Aβtotal = test: In vivo efficacy Method 1: brain soluble Aβtotal by ELISA; parameters: species or system mouse; conditions: Table 4a, single oral dose, overnight fasted animals, sacrificed after 4 h, soluble fraction of brain homogenates
Summary of the method: as §1

Aβ42 [2] = test: Screening for γ-secretase-modulating activity, Method 2: Aβ42 Alphalisa on SKNBE2 cell supernatant; format: cell-based; conditions: Method 2, Table 3c, SKNBE2 cells carrying APP 695 wild type, overnight incubation
Summary of the method: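 SKNBE2 cells expressing wild-type APP695, plated at 10^4 cells/well with compound at several concentrations and incubated overnight at 37° C. Aβ42 (C-terminal capture, N-terminal biotinylated detection) and Aβtotal (N-terminal/4G8 pair) measured in supernatant by AlphaLISA. IC50 from 4-parameter fit of percent of compound-free control.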

Structure (SMILES)	pIC50 (Aβ42 [2]; Homo sapiens)	pIC50 (Aβ42 [2])	Aβ42 (% Ctrl) _Mean (Aβ42 [1]) [% Ctrl]	Aβtotal (% Ctrl) _Mean (Aβtotal) [% Ctrl]
COc1cc(Nc2cccc3c2nc(-c2ccc(F)cc2)n3C)ccc1-n1cnc(C)c1 [Compound 1]	7.80	–	57	100
COc1cc(Nc2nccc3c2nc(-c2ccc(F)cc2)n3C)ccc1-n1cnc(C)c1 [Compound 8]	7.77	–	46	91
CCn1c(CC2CC2)nc2c(Nc3ccc(-n4cnc(C)c4)c(OC)c3)cccc21 [Compound 36]	–	7.11	79	95
COc1cc(Nc2cccc3c2nc(Oc2ccccc2)n3C)ccc1-n1cnc(C)c1 [Compound 61]	–	6.85	89	97
COc1cc(-c2nc3c(Nc4ccc(-n5cnc(C)n5)c(OC)c4)nccc3n2C)ccc1Cl [Compound 114]	7.68	–	–	–
COc1nc(Nc2cc(F)cc3c2nc(-c2ccc(F)cc2)n3C)ccc1-n1cnc(C)c1 [Compound 115]	–	8.70	97	93
COc1cc(Nc2nccc3c2nc(-c2ccccc2C(F)(F)F)n3C)ccc1-n1cnc(C)n1 [Compound 130]	–	6.89	75	94
COc1cc(Nc2nc(C)cc3c2nc(-c2ccc(F)cc2)n3C)ccc1-n1cnc(C)n1 [Compound 164]	–	7.34	72	97

The next lines start with results.

pIC50 (Aβ42 [2]; Homo sapiens)	pIC50 (Aβ42 [2])	Structure (SMILES)	Aβ42 (% Ctrl) _Mean (Aβ42 [1]) [% Ctrl]	Aβtotal (% Ctrl) _Mean (Aβtotal) [% Ctrl]
7.57	–	COc1cc(Nc2cccc3c2nc(-c2ccc(F)cc2)n3C)ccc1-n1cnc(C)n1 [Compound 4]	64	92
8.22	–	COc1nc(Nc2cccc3c2nc(-c2ccc(F)cc2)n3C)ccc1-n1cnc(C)c1 [Compound 15]	31	83
–	7.44	Cc1cn(-c2ccc(Nc3cccc4c3nc(-c3ccc(F)cc3)n4C)cc2F)cn1 [Compound 67]	71	99
–	6.54	Cc1ncn(-c2ccc(Nc3cccc4c3nc(-c3ccc(F)cc3)n4C(C)C)cc2)n1.Cl.Cl [Compound 73]	87	97
–	7.35	COc1cc(Nc2cccc3c2nc(-c2ccc(F)cc2)n3C(C)C)ccc1-n1cnc(C)n1.Cl.Cl [Compound 75]	67	92
–	7.14	Cc1ncn(-c2ccc(Nc3cccc4c3nc(-c3ccc(F)cc3)n4C(C)C)cn2)n1 [Compound 76]	86	102
–	6.75	COc1cc(Nc2nccc3c2nc(-c2ccc(F)cc2)n3C)ccc1-n1cnc(C)n1 [Compound 92]	60	103
7.70	–	COc1cc(Nc2cc(C(C)C)nc3c2nc(-c2ccc(F)cc2)n3C)ccc1-n1cnc(C)n1 [Compound 110]	–	–
